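Tested at 5 concentrations; 48 h exposure; 96-well plates; endpoints linearly interpolated, else capped at highest concentration. Here, GI50 denotes the concentration required for 50% inhibition of growth.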 The source made the active and inactive calls. No stated cut-off is given here; in the data, active = GI50 up to about 1.1 µM and inactive = higher.
What was measured:
Assay in all cases: NCI-60 cell line screen, 48 h
NCI-H522 = test system: NCI-H522
HCC 2998 = test system: HCC 2998
CCRF-CEM = test system: CCRF-CEM
BT-549 = test system: BT-549
SK-MEL-5 = test system: SK-MEL-5
MDA-MB-231 = test system: MDA-MB-231
TK-10 = test system: TK-10
HT-29 = test system: HT-29
HOP-92 = test system: HOP-92
MDA-N = test system: MDA-N
A549 = test system: A549
IGROV-1 = test system: IGROV-1
SK-OV-3 = test system: SK-OV-3
HOP-62 = test system: HOP-62
T47D = test system: T47D
SNB-19 = test system: SNB-19
A498 = test system: A498
SK-MEL-2 = test system: SK-MEL-2

Structure (SMILES) | GI50 (NCI-H522) | GI50 (HCC 2998) | GI50 (CCRF-CEM) | GI50 (BT-549) | GI50 (SK-MEL-5) | GI50 (MDA-MB-231) | GI50 (TK-10) | GI50 (HT-29) | GI50 (HOP-92) | GI50 (MDA-N) | GI50 (A549) | GI50 (IGROV-1) | GI50 (SK-OV-3) | GI50 (HOP-62) | GI50 (T47D) | GI50 (SNB-19) | GI50 (A498) | GI50 (SK-MEL-2)
C=C(Cl)C(Cl)(CBr)CCC(Br)C(C)(C)Br (stereo not drawn) | 5.86 µM (inactive) | 5.75 µM (inactive) | 6.21 µM (inactive) | 7.66 µM (inactive) | 16.6 µM (inactive) | 11.9 µM (inactive) | 1.49 µM (inactive) | 1.07 µM (active) | 2.76 µM (inactive) | 8.93 µM (inactive) | 4.9 µM (inactive) | 18.2 µM (inactive) | 17.2 µM (inactive) | 1.06 µM (active) | 2.25 µM (inactive) | 8.75 µM (inactive) | 10.5 µM (inactive) | 
N#Cc1c(Cl)c2cccnc2n2c1nc1ccccc12 | 1.17 µM (inactive) | 3.85 µM (inactive) | 0.9 µM (active) | 4.44 µM (inactive) | 1.13 µM (inactive) | 2.13 µM (inactive) | 1.67 µM (inactive) | 1.94 µM (inactive) | 1.97 µM (inactive) | 3.62 µM (inactive) | 6.59 µM (inactive) | 1.41 µM (inactive) | 15.5 µM (inactive) | 16.6 µM (inactive) | 2 µM (inactive) | 15.8 µM (inactive) | 17.3 µM (inactive) | 8 µM (inactive)
COc1ccc2c(c1)C(=O)c1ccccc1C2 | 47.4 µM (inactive) | 70.8 µM (inactive) | 25.1 µM (inactive) | 64.1 µM (inactive) | 49.9 µM (inactive) | 18.9 µM (inactive) | 48.1 µM (inactive) | 58.6 µM (inactive) | 64 µM (inactive) | > 100 µM (inactive) | 86.7 µM (inactive) | 38.8 µM (inactive) | 33.5 µM (inactive) | 50.6 µM (inactive) | 19.7 µM (inactive) | > 100 µM (inactive) | 29.7 µM (inactive) | 48.3 µM (inactive)
COc1ccc2c(c1)c(=O)c1c(NCCN(C)C)ccc3c(=O)n(CCN(C)C)c(=O)n2c31 | 0.0762 µM (active) | 0.0247 µM (active) | < 0.01 µM (active) | 0.764 µM (active) | 0.126 µM (active) | 0.191 µM (active) | 0.141 µM (active) | 0.0197 µM (active) | 0.0483 µM (active) | 0.1 µM (active) | 0.0367 µM (active) | < 0.0232 µM (active) | 0.55 µM (active) | 0.0711 µM (active) | 0.372 µM (active) | 0.206 µM (active) | 0.211 µM (active) | 0.182 µM (active)
C=C(C)C(=O)CC[C@@H](C)[C@H]1[C@@H](OC2OC(CO)C(O)C(O)C2O)C[C@@]2(C)[C@@H]3C[C@H](O)C4C(C)(C)[C@@H](OC5OC(CO)C(O)C(O)C5O)CC[C@@]45C[C@@]35CC[C@]12C (stereo partly drawn) | 80.4 µM (inactive) | 47 µM (inactive) | 64.9 µM (inactive) | 36.6 µM (inactive) | 46.6 µM (inactive) | > 100 µM (inactive) | > 100 µM (inactive) | > 100 µM (inactive) | > 100 µM (inactive) | 24.6 µM (inactive) | > 100 µM (inactive) | > 100 µM (inactive) | > 100 µM (inactive) | > 100 µM (inactive) | > 100 µM (inactive) | 48.8 µM (inactive) | > 100 µM (inactive) | > 100 µM (inactive)
c1ccc(COc2ccc(C[P+](c3ccccc3)(c3ccccc3)c3ccccc3)cc2)cc1 | 0.195 µM (active) | 0.16 µM (active) | 0.627 µM (active) | 0.139 µM (active) | 0.108 µM (active) | 0.776 µM (active) | 0.251 µM (active) | 0.19 µM (active) | 0.153 µM (active) | 0.221 µM (active) | 0.184 µM (active) | 0.294 µM (active) | 0.287 µM (active) | 0.427 µM (active) | < 0.0175 µM (active) | 0.354 µM (active) | 1.1 µM (active) | 0.109 µM (active)
CC(=O)Nc1ccc(S(=O)(=O)/N=C2\C=CC(=O)c3ccccc32)cc1 | 14.5 µM (inactive) | 3.21 µM (inactive) | 3.37 µM (inactive) | 12.1 µM (inactive) | 2.88 µM (inactive) | 2.78 µM (inactive) | 19.9 µM (inactive) | 13.6 µM (inactive) | 5.07 µM (inactive) | 1.95 µM (inactive) | 9.98 µM (inactive) | 2.58 µM (inactive) | 16.5 µM (inactive) | 8.83 µM (inactive) | 8.17 µM (inactive) | 11.6 µM (inactive) | 10.3 µM (inactive) | 14.3 µM (inactive)
COc1cc(/C=C/C(=O)OC2C(O)C3CC(OC(=O)c4cc(OC)c(OC)c(OC)c4)CC2N3C)cc(OC)c1OC (stereo not drawn) | 19.5 µM (inactive) | 15 µM (inactive) | 17.9 µM (inactive) | > 50 µM (inactive) | 16.5 µM (inactive) | 16.1 µM (inactive) | > 50 µM (inactive) | 14.2 µM (inactive) | 9.77 µM (inactive) | 36.4 µM (inactive) | > 50 µM (inactive) | 0.43 µM (active) | 21.8 µM (inactive) | 26.4 µM (inactive) | 14.5 µM (inactive) | 12.9 µM (inactive) | 8.04 µM (inactive) | 47.1 µM (inactive)
COC(=O)C1CC23C=CCN4CC(C2C)C2(c5ccccc5NC12)C43 (stereo not drawn) | > 100 µM (inactive) | > 100 µM (inactive) | > 100 µM (inactive) | > 100 µM (inactive) | > 100 µM (inactive) | > 100 µM (inactive) | > 100 µM (inactive) | > 100 µM (inactive) | > 100 µM (inactive) | > 100 µM (inactive) | > 100 µM (inactive) | > 100 µM (inactive) | > 100 µM (inactive) | > 100 µM (inactive) | > 100 µM (inactive) | > 100 µM (inactive) | > 100 µM (inactive) | > 100 µM (inactive)
O=C(OCc1ccccc1)N1CCN(C(=O)OCc2ccccc2)CCN(C(=O)OCc2ccccc2)CCN(C(=O)OCc2ccccc2)CCN(C(=O)OCc2ccccc2)CC1 | 68.2 µM (inactive) | > 100 µM (inactive) |  | > 100 µM (inactive) | 18.4 µM (inactive) | 39.5 µM (inactive) | 46.6 µM (inactive) |  | 70.5 µM (inactive) | > 100 µM (inactive) | > 100 µM (inactive) |  | > 100 µM (inactive) | 65 µM (inactive) | > 100 µM (inactive) | > 100 µM (inactive) | > 100 µM (inactive) | > 100 µM (inactive)
CC(C(=O)OCc1ccccc1)(c1ccco1)N1C(=O)OC(c2ccccc2)C1c1ccccc1 (stereo not drawn) | > 100 µM (inactive) | > 100 µM (inactive) | 4.04 µM (inactive) | > 100 µM (inactive) | > 30.1 µM (inactive) | > 30.5 µM (inactive) | > 100 µM (inactive) | > 100 µM (inactive) | > 100 µM (inactive) | > 51.1 µM (inactive) | > 100 µM (inactive) | > 100 µM (inactive) | > 100 µM (inactive) | > 100 µM (inactive) | 5.96 µM (inactive) | > 100 µM (inactive) | > 59.8 µM (inactive) | > 100 µM (inactive)
CO/N=C(\C)c1ccc(Nc2nc3ccccc3c3occc23)cc1 | 10.8 µM (inactive) | 16.1 µM (inactive) | 16 µM (inactive) | 16.8 µM (inactive) | 15.8 µM (inactive) | 12.7 µM (inactive) | 12.4 µM (inactive) | 3.03 µM (inactive) | 13.8 µM (inactive) | 14.6 µM (inactive) | 17.3 µM (inactive) | 16.1 µM (inactive) | 15.9 µM (inactive) | 16 µM (inactive) | 12.6 µM (inactive) | 15.5 µM (inactive) | 16 µM (inactive) | 18 µM (inactive)
CCOC(=O)c1ccc(Nc2cnc3cc(C(F)(F)F)ccc3n2)cc1 | > 100 µM (inactive) | > 100 µM (inactive) | > 100 µM (inactive) | > 100 µM (inactive) | > 100 µM (inactive) | > 100 µM (inactive) | > 100 µM (inactive) | > 100 µM (inactive) | > 100 µM (inactive) | > 100 µM (inactive) | > 100 µM (inactive) | > 100 µM (inactive) | > 100 µM (inactive) | > 100 µM (inactive) | > 100 µM (inactive) |  | > 100 µM (inactive) | 
CCOC(=O)C1(C(N)=O)C(=O)c2ccncc2C1=O (stereo not drawn) | > 100 µM (inactive) | > 100 µM (inactive) | > 100 µM (inactive) | > 100 µM (inactive) | > 100 µM (inactive) | > 100 µM (inactive) |  | > 100 µM (inactive) | > 100 µM (inactive) | > 100 µM (inactive) | > 100 µM (inactive) | > 100 µM (inactive) | > 100 µM (inactive) |  | > 100 µM (inactive) | > 100 µM (inactive) | > 100 µM (inactive) | > 100 µM (inactive)
COC(=O)/C=C1\CCC(C)(C(=O)NS(=O)(=O)c2ccc(C)cc2)C1(C)C (stereo not drawn) | > 100 µM (inactive) | > 100 µM (inactive) | > 100 µM (inactive) | > 100 µM (inactive) | > 100 µM (inactive) | > 100 µM (inactive) | > 100 µM (inactive) |  | > 100 µM (inactive) | > 100 µM (inactive) | > 100 µM (inactive) | > 100 µM (inactive) | > 100 µM (inactive) | > 100 µM (inactive) | > 100 µM (inactive) | > 100 µM (inactive) | > 100 µM (inactive) | > 100 µM (inactive)
Fc1ccc2nc3n(c2c1)C(c1c(Cl)cccc1Cl)SC3 (stereo not drawn) | 29.4 µM (inactive) | > 100 µM (inactive) |  | > 100 µM (inactive) | > 100 µM (inactive) | > 100 µM (inactive) | > 100 µM (inactive) | > 100 µM (inactive) | 50.4 µM (inactive) | 7.89 µM (inactive) | > 100 µM (inactive) | > 100 µM (inactive) | > 100 µM (inactive) | > 100 µM (inactive) | > 100 µM (inactive) | > 100 µM (inactive) | > 100 µM (inactive) | > 100 µM (inactive)

From ChEMBL document CHEMBL1201862, “PubChem BioAssay data set” (2004)
